Measured values reported in patent EP0760376A1, “PEPTIDES INHIBITING PHOSPHOLIPASE C” (Kyowa Hakko Kogyo Co., Ltd., priority 1995, dated 1996).
Converted amounts (≈) assume the structure as drawn. Square brackets hold non-standard residues; d marks the D form. Peptide text beside a SMILES is read from it. * marks the point of attachment. 12Ado = NCCCCCCCCCCCC(=O)O; Aun = NCCCCCCCCCCC(=O)O; Butyryl = CCCC(=O)*

Columns and labels:
PLC-γ1 = molecular target: T1, PLC-γ1 (Bos taurus, UniProt P08487); test: PLC-inhibiting activity (release of [3H]inositol phosphate from [3H]PIP2); type: biochemical, bovine; conditions: 37°C, 10 minutes, pH 6.0, read-out: Inhibition rate (%)
T1 construct: A sample of PLC-γ1 was prepared from bovine thymus; from tissue; host or cells: bovine thymus
T1 sequence (P08487 1-1291): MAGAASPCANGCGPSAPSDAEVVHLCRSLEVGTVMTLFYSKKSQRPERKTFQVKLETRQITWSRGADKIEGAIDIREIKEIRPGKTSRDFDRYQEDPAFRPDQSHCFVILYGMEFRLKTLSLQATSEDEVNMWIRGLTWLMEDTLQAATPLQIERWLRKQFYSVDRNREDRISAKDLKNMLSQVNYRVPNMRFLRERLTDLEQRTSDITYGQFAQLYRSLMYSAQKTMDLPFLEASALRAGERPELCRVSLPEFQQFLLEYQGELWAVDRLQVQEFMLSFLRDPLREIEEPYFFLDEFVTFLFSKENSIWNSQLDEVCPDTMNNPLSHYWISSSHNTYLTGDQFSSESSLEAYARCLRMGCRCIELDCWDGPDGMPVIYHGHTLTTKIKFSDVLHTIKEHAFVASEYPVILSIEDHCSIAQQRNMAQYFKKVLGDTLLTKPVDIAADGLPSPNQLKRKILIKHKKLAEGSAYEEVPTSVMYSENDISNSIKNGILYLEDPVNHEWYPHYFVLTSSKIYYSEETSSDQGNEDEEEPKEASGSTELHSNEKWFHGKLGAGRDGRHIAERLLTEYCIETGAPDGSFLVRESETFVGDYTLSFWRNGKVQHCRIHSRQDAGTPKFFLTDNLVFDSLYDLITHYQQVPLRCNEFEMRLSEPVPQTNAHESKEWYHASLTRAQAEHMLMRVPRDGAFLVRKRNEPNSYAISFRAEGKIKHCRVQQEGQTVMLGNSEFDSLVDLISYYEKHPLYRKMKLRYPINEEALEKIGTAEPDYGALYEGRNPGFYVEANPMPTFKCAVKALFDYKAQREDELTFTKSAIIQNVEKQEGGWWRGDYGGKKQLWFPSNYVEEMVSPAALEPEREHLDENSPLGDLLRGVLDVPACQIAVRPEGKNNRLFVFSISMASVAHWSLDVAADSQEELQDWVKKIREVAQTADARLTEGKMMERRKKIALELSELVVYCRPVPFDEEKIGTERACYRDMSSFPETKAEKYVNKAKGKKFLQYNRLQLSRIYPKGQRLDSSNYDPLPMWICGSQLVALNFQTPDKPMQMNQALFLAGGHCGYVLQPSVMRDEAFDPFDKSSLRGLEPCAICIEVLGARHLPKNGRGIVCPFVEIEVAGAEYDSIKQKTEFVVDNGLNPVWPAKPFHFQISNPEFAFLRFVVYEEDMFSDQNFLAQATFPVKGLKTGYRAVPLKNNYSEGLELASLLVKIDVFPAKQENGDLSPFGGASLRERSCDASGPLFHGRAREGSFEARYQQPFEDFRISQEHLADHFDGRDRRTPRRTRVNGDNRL
Procedure: A sample of PLC-γ1 was prepared from bovine thymus according to the method described in Y. Honma et al., Biochem. J., 269, 13 (1990). A solution having the composition shown in Table 2 below was prepared on ice and was heated to 37°C to start reaction. After incubation for 10 minutes, 2 ml of a chloroform/methanol mixture (2:1, v/v) was added thereto to stop the reaction. The resulting inositol phosphate was extracted with 0.5 ml of 1 N hydrochloric acid. The extract was separated into two liquid phases by centrifugation (2000 x g, 3 minutes), and the amount of ^3H contained in the supernatant (0.7 ml) was measured with a scintillation counter. Table 2 [table] The inhibition rate (X) was calculated according to the following equation: X (%) = (A-C) / (B-C) x 100 [formula] where A is the obtained value of specific radioactivity, B is the value of specific radioactivity obtained when the same amount of water was added instead of the aqueous solution of the test peptide, and C is the value of specific radioactivity obtained when the same amount of water was added instead of the sample and the aqueous solution of the test peptide.

[1] = test system: Proteus vulgaris ATCC 6897; type: cell-based; conditions: ATCC 6897, pH 7
Procedure: (§1) The antibacterial activity was determined by the agar dilution method using a medium (pH 7.0) which comprises 3 g/l Bacto-tryptone (Difco Laboratories), 1 g/l meat extract, 1 g/l glucose and 16 g/l agar.

[2] = test system: Staphylococcus aureus ATCC 6538P; type: cell-based; conditions: pH 7
Procedure: as §1

[3] = test system: Pseudomonas aeruginosa Bin H No. 1; type: cell-based; conditions: Bin H No. 1, pH 7
Procedure: as §1

[4] = test system: Bacillus subtilis No. 10707; type: cell-based; conditions: No. 10707, pH 7
Procedure: as §1

KMS-4 cells = test: Cell growth-inhibiting activity (BrdU incorporation, cell growth detection kit); type: cell-based; conditions: Concentration 1 µM, culturing with peptide for 17 hours
Procedure: The cell growth-inhibiting activity was determined using a cell growth detection kit (Amersham) in the following manner. KMS-4 cells [M. Nanba et al, International Journal of Cancer, 32, 697 (1983)] were suspended in DMEM medium (Nissui Pharmaceutical Co., Ltd.) containing 10% fetal calf serum at a density of 1-2 x 10^4 cells/ml, and 1 ml of the cell suspension was put into each well of a 24-well plate (Corning Inc.). The cells were cultured in a CO2 incubator (37°C, 5% CO2) for 2 days. Then, the medium was replaced with a fresh DMEM medium containing 10% fetal calf serum, and the test peptide was added thereto, followed by culturing for 17 hours. The medium was replaced with a serum-free DMEM medium, and 0.5 ml of a solution prepared by diluting labeled reagent 5-bromo-2'-deoxyuridine (BrdU) and 5-fluoro-2'-deoxyuridine (FdU) (10:1) 1000-fold with the same medium was added to each well, followed by culturing for 2 hours. Then the medium was removed, and the cells were immobilized with an acetic acid/ethanol solution. The immobilized cells were stained according to the method for the cell growth detection kit of Amersham, and then further stained with a 1% Giemsa solution (Merck & Co., Inc.). The number of cells which incorporated BrdU and the total number of cells within one field of vision of a microscope (approximately 200 cells) were determined, and the proportion (%) of stained cells per field of vision was calculated. The above procedure was repeated 10 times, and the average value thereof was defined as the cell growth activity (%). The cell growth-inhibiting activity was calculated in the following manner. That is, the cell growth inhibition rate was calculated according to the following equation: X (%) = (1-B/A) x 100 [formula] where A is the growth activity when no peptide was added, and B is the growth activity when the test peptide was added.

[5] = test system: Enterococcus hirae ATCC 10541; test: Antibacterial activity, agar dilution method; type: cell-based; conditions: pH 7
Procedure: as §1

[6] = test system: Candida albicans ATCC 10231; type: cell-based; conditions: ATCC 10231, pH 7
Procedure: as §1

[7] = test system: Klebsiella pneumoniae ATCC 10031; test: Antibacterial activity, agar dilution method; type: cell-based; conditions: medium pH 7.0
Procedure: as §1

| SMILES | inhibition at 23 µM (PLC-γ1; Concentration 23 µM (aqueous solution of test peptide provided for the test)) | MIC (µg/ml) PV [1] | MIC (µg/ml) SA [2] | MIC (µg/ml) PA [3] | MIC (µg/ml) BS [4] | inhibition at 116 µM (PLC-γ1; Concentration 116 µM (aqueous solution of test peptide provided for the test)) | Inhibition rate (%) (KMS-4 cells) | MIC (µg/ml) EH [5] | MIC (µg/ml) CA [6] | MIC (µg/ml) KP [7] |
| --- | --- | --- | --- | --- | --- | --- | --- | --- | --- | --- |
| CCCC(=O)N[C@@H](CC(C)C)C(=O)N[C@@H](Cc1ccc(O)cc1)C(=O)N[C@@H](CCCNC(=N)N)C(=O)N[C@@H](CCCCN)C(=O)N[C@@H](CCSC)C(=O)N[C@@H](CCCNC(=N)N)C(=O)N[C@@H](CC(C)C)C(=O)N[C@@H](CCCNC(=N)N)C(=O)N[C@@H](Cc1ccc(O)cc1)C(=O)N1CCC[C@H]1C(=O)N[C@H](C(=O)NCCCCCCCCCCCC(N)=O)C(C)C [Compound (I-9), C3H7CO-Leu-Tyr-Arg-Lys-Met-Arg-Leu-Arg-Tyr-Pro-Val-NH-(CH2)11CONH2] (Butyryl-LYRKMRLRYPV[12Ado]-NH2) | 73% | 100 µg/mL (≈ 56.8 µM) | 200 µg/mL (≈ 114 µM) | 200 µg/mL (≈ 114 µM) | 50 µg/mL (≈ 28.4 µM) |  |  |  |  |  |
| CSCC[C@H](NC(=O)[C@H](CCCCN)NC(=O)[C@H](CCCNC(=N)N)NC(=O)[C@H](Cc1ccc(O)cc1)NC(=O)[C@H](CC(C)C)NC(C)=O)C(=O)N[C@@H](CCCNC(=N)N)C(=O)N[C@@H](CC(C)C)C(=O)N[C@@H](CCCNC(=N)N)C(=O)N[C@@H](Cc1ccc(O)cc1)C(=O)N1CCC[C@H]1C(=O)N[C@H](C(=O)NCCCCCCCCCCC(N)=O)C(C)C [Compound (I-6), CH3CO-Leu-Tyr-Arg-Lys-Met-Arg-Leu-Arg-Tyr-Pro-Val-NH-(CH2)10CONH2] (Ac-LYRKMRLRYPV[Aun]-NH2) |  | 43 µg/mL (≈ 25 µM) | 171 µg/mL (≈ 99.5 µM) | 85 µg/mL (≈ 49.4 µM) | 43 µg/mL (≈ 25 µM) | 85% | 57% | 171 µg/mL (≈ 99.5 µM) | 171 µg/mL (≈ 99.5 µM) | 43 µg/mL (≈ 25 µM) |
